Measured values: patent US8901036B2, “Combinations of phenylsulfonylurea herbicides and safeners” (Bayer Cropscience AG, priority 1994, dated 2014)

What was measured:
[1] = tested on: Wheat; experiment: Phytotoxicity of herbicide/safener combinations in cereals, glasshouse post-emergence; assay type: in vivo; conditions: no safener, 4 weeks after treatment
Protocol: (§1) Various crop plants are grown in plastic pots with a diameter of 9 cm in a glasshouse to the stated stage and then treated with the particular herbicide or with a mixture of the herbicide and the safener by the post-emergence method. This entails the herbicide of the formula (A) and the compounds of the formula (B) being applied in the form of aqueous suspensions or emulsions with a water application rate which converts to 300 l/ha. 4 weeks after the treatment, the plants are assessed visually for every type of damage by the applied herbicides, taking particular account of the extent of persistent growth inhibition. The evaluation takes place in percentages (scale from 0 to 100%) compared with untreated controls.

[2] = tested on: Barley; experiment: as above; assay type: in vivo; conditions: no safener, 4 weeks after treatment
Protocol: as §1

[3] = tested on: ALMY; experiment: Herbicidal activity on grasses, post-emergence; assay type: in vivo, Alopecurus myosuroides; conditions: no safener, 4-leaf stage
Protocol: as §1

[4] = tested on: AVFA; experiment: Herbicidal activity on grasses, post-emergence; assay type: in vivo, Avena fatua; conditions: no safener, 4-leaf stage
Protocol: as §1

[5] = tested on: POAN; experiment: Herbicidal activity on grasses, post-emergence; assay type: in vivo, Poa annua; conditions: no safener, 4-leaf stage
Protocol: as §1

[6] = tested on: APSP; experiment: Herbicidal activity on grasses, post-emergence; assay type: in vivo, Apera spica-venti; conditions: no safener, 4-leaf stage
Protocol: as §1

Row | SMILES | Phytotoxicity Wheat ([1]; dose A 10 g AS/ha) [%] | Phytotoxicity Wheat ([1]; dose A 20 g AS/ha) [%] | Phytotoxicity Barley ([2]; dose A 10 g AS/ha) [%] | Phytotoxicity Barley ([2]; dose A 20 g AS/ha) [%] | Phytotoxicity Wheat ([1]; dose A 40 g AS/ha) [%] | Phytotoxicity Barley ([2]; dose A 40 g AS/ha) [%] | % effect on ALMY ([3]; dose A 10 g AS/ha) [%] | % effect on ALMY ([3]; dose A 20 g AS/ha) [%] | % effect on ALMY ([3]; dose A 40 g AS/ha) [%] | % effect on AVFA ([4]; dose A 10 g AS/ha) [%] | % effect on AVFA ([4]; dose A 20 g AS/ha) [%] | % effect on AVFA ([4]; dose A 40 g AS/ha) [%] | % effect on POAN ([5]; dose A 10 g AS/ha) [%] | % effect on POAN ([5]; dose A 20 g AS/ha) [%] | % effect on POAN ([5]; dose A 40 g AS/ha) [%] | % effect on APSP ([6]; dose A 10 g AS/ha) [%] | % effect on APSP ([6]; dose A 20 g AS/ha) [%] | % effect on APSP ([6]; dose A 40 g AS/ha) [%]
1 | COC(=O)c1ccc(NC(C)=O)cc1S(=O)(=O)NC(=O)Nc1nc(OC)cc(OC)n1 [A1, N-(4,6-Dimethoxypyrimidin-2-ylaminocarbonyl)-2-methoxycarbonyl-5-acetylaminobenzenesulfonamide] | 25 | 50 | 50 | 80 | – | – | – | – | – | – | – | – | – | – | – | – | – | –
2 | COC(=O)c1ccc(CN(C)C=O)cc1S(=O)(=O)NC(=O)Nc1nc(OC)cc(OC)n1.[Na] [A2, N-(4,6-Dimethoxypyrimidin-2-ylaminocarbonyl)-2-methoxycarbonyl-5-(N-formyl-N-methylaminomethyl)benzenesulfonamide sodium salt] | 20 | 60 | 40 | 80 | – | – | – | – | – | – | – | – | – | – | – | – | – | –
3 | COC(=O)c1ccc(NC(C)=O)cc1S(=O)(=O)NC(=O)Nc1nc(OC)cc(OC)n1.[Na] [A3, N-(4,6-Dimethoxypyrimidin-2-ylaminocarbonyl)-2-methoxycarbonyl-5-acetylaminobenzenesulfonamide sodium salt] | 30 | 65 | 60 | 95 | – | – | – | – | – | – | – | – | – | – | – | – | – | –
4 | CCC(=O)N(C)c1ccc(C(=O)OC)c(S(=O)(=O)NC(=O)Nc2nc(OC)cc(OC)n2)c1.[Na] [A4, N-(4,6-Dimethoxypyrimidin-2-ylaminocarbonyl)-2-methoxycarbonyl-5-(N-methyl-N-propionylamino)benzenesulfonamide sodium salt] | – | 15 | – | 30 | 40 | 80 | – | – | – | – | – | – | – | – | – | – | – | –
5 | COC(=O)c1ccc(N(C)C(=O)C(C)C)cc1S(=O)(=O)NC(=O)Nc1nc(OC)cc(OC)n1.[Na] [A5, N-(4,6-Dimethoxypyrimidin-2-ylaminocarbonyl)-2-methoxycarbonyl-5-(N-isopropionylmethylamino)benzenesulfonamide sodium salt] | – | 5 | – | 25 | 20 | 50 | 95 | 99 | 100 | 85 | 99 | 100 | 98 | 100 | 100 | 98 | 100 | 100
6 | COC(=O)NCc1ccc(C(=O)OC)c(S(=O)(=O)NC(=O)Nc2nc(OC)cc(OC)n2)c1.[Na] [A6, N-(4,6-Dimethoxypyrimidin-2-ylaminocarbonyl)-2-methoxycarbonyl-5-(N-methoxycarbonylaminomethyl)benzenesulfonamide sodium salt] | – | 15 | – | 30 | 40 | 85 | 99 | 100 | 100 | 80 | 90 | 100 | 99 | 100 | 100 | 99 | 100 | 100
